Data reported in ChEMBL document CHEMBL1909046, “DrugMatrix in vitro pharmacology data”.

Experiments:
Cytochrome P450 2C9 = Cytochrome P450 2C9 (Homo sapiens, UniProt P11712); conditions: bti-tn-5b1-4; further: in other assays of this panel Not Active means under 50% inhibition at 10 µM
Cytochrome P450 2D6 = Cytochrome P450 2D6 (Homo sapiens, UniProt P10635); conditions: bti-tn-5b1-4; further: in other assays of this panel Not Active means under 50% inhibition at 10 µM
[1] = target: Voltage-gated inwardly rectifying potassium channel KCNH2 (Homo sapiens, UniProt Q12809); conditions: hek293; further: in other assays of this panel Not Active means under 50% inhibition at 10 µM
Chain of Voltage-gated inwardly rectifying potassium channel KCNH2 (Q12809 whole entry): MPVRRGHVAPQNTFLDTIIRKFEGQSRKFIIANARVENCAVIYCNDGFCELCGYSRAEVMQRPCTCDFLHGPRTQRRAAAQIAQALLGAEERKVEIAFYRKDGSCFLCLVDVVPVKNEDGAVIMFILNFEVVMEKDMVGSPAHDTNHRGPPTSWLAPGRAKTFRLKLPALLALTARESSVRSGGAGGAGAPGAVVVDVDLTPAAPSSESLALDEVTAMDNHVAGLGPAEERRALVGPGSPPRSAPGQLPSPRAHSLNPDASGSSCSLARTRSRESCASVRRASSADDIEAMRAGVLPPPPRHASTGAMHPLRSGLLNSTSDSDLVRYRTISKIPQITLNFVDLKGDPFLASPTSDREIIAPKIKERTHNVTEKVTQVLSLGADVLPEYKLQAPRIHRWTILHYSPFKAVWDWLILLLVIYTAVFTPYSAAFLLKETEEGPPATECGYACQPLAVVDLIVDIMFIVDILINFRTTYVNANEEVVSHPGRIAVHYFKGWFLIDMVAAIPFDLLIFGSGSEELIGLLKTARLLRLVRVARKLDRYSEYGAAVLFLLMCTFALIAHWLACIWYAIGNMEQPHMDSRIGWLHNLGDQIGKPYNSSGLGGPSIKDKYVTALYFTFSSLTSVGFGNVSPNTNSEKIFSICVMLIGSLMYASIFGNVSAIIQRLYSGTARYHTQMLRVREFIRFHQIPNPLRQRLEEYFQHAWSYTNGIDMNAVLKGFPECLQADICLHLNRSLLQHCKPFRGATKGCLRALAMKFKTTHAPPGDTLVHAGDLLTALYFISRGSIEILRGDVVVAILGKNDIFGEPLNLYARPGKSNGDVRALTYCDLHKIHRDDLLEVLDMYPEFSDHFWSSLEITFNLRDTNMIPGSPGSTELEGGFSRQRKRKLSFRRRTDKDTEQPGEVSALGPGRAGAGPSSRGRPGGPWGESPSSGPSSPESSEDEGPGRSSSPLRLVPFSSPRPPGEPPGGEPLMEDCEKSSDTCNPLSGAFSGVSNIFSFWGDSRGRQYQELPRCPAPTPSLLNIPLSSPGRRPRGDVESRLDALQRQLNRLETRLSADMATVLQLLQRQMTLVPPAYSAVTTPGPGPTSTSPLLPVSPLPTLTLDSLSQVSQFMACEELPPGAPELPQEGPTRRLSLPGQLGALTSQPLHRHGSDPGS

Cytochrome P450 1A2 = target: T1, Cytochrome P450 1A2 (Homo sapiens, UniProt P05177); conditions: bti-tn-5b1-4; further: in other assays of this panel Not Active means under 50% inhibition at 10 µM
T1 sequence (P05177 whole entry): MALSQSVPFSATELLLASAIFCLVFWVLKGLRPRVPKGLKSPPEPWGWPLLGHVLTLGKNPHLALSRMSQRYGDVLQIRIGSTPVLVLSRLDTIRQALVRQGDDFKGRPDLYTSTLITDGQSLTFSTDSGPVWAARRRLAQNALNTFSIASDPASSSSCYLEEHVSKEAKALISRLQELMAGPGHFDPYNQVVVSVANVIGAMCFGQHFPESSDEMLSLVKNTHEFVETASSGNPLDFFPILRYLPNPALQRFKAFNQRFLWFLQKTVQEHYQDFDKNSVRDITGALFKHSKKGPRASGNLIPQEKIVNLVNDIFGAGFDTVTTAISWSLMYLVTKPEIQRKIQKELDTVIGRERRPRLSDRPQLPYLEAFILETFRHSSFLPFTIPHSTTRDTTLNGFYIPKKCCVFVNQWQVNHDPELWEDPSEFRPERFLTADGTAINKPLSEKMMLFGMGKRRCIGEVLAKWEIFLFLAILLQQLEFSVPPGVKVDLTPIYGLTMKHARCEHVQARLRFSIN

Cytochrome P450 2C19 = Cytochrome P450 2C19 (Homo sapiens, UniProt P33261); conditions: bti-tn-5b1-4; further: in other assays of this panel Not Active means under 50% inhibition at 10 µM
Chain of Cytochrome P450 2C19 (P33261 whole entry): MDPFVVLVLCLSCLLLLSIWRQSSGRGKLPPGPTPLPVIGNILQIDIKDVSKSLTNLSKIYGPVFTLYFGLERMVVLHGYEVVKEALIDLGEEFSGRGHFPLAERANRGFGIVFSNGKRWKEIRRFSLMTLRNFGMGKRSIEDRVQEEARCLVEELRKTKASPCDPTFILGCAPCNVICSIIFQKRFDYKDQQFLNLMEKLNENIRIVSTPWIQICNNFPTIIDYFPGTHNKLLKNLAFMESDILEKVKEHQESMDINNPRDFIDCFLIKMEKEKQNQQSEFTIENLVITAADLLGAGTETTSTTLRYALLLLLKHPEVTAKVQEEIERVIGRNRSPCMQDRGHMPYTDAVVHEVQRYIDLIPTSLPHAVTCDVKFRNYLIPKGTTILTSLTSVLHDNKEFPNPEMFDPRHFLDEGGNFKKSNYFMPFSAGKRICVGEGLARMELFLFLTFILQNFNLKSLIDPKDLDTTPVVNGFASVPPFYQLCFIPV

Glucocorticoid receptor = target: T2, Glucocorticoid receptor (Homo sapiens, UniProt P04150); conditions: hela s3; further: in other assays of this panel Not Active means under 50% inhibition at 10 µM
T2 sequence (P04150 whole entry): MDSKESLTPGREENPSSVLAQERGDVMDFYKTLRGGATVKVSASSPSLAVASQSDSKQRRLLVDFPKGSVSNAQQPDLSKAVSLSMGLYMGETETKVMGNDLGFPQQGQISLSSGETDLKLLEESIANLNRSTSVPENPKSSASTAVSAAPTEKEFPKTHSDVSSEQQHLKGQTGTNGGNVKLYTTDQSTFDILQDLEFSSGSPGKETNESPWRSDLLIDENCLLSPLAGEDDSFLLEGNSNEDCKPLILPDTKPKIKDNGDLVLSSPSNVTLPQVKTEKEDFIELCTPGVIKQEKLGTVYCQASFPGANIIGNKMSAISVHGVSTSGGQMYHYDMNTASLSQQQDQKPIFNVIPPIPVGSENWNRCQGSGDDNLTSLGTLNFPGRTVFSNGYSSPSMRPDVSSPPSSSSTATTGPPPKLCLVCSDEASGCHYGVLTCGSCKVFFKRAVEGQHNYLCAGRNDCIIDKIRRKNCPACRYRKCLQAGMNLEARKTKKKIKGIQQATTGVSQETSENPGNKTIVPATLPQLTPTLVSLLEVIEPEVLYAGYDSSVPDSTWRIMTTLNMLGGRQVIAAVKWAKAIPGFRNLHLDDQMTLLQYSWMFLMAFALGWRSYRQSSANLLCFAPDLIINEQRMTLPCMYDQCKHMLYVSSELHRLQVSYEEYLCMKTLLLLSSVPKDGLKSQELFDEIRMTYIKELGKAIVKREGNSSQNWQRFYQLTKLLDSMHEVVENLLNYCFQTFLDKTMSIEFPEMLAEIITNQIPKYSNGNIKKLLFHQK

Estrogen receptor beta = Estrogen receptor beta (Homo sapiens, UniProt Q92731); conditions: sf9; further: in other assays of this panel Not Active means under 50% inhibition at 10 µM
Chain of Estrogen receptor beta (Q92731 whole entry): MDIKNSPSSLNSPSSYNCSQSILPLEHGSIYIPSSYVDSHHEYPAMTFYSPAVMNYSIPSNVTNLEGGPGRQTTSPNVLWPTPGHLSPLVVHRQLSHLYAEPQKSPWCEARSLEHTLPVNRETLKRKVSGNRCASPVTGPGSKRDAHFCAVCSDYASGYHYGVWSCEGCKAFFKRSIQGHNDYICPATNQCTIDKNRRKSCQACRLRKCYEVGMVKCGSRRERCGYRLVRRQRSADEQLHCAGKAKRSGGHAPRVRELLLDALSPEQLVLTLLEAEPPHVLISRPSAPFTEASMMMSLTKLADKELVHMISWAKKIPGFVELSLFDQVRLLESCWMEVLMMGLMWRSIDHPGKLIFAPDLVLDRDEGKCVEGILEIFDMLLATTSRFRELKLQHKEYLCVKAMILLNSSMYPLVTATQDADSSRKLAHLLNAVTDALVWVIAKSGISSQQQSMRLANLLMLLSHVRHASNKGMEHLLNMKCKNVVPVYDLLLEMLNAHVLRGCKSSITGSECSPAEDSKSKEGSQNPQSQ

Estrogen receptor = target: T3, Estrogen receptor (Homo sapiens, UniProt P03372); conditions: sf9; further: in other assays of this panel Not Active means under 50% inhibition at 10 µM
T3 sequence (P03372 whole entry): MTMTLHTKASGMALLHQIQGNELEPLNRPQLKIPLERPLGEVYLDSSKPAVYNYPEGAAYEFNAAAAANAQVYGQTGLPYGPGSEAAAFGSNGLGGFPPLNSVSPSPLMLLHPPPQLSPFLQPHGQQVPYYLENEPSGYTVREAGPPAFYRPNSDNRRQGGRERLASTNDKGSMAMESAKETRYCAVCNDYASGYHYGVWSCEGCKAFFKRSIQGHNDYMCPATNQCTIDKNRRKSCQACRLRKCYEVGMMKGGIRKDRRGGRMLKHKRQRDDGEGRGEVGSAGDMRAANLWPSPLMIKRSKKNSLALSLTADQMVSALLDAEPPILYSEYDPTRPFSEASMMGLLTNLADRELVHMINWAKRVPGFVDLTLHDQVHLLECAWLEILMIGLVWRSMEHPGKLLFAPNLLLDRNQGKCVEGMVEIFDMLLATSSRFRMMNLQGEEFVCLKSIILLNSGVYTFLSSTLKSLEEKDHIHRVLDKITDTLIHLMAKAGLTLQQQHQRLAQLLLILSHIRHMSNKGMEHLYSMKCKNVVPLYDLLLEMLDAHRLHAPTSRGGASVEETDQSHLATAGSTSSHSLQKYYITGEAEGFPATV

Cytochrome P450 3A4 = Cytochrome P450 3A4 (Homo sapiens, UniProt P08684); conditions: bti-tn-5b1-4; further: in other assays of this panel Not Active means under 50% inhibition at 10 µM
Chain of Cytochrome P450 3A4 (P08684 whole entry): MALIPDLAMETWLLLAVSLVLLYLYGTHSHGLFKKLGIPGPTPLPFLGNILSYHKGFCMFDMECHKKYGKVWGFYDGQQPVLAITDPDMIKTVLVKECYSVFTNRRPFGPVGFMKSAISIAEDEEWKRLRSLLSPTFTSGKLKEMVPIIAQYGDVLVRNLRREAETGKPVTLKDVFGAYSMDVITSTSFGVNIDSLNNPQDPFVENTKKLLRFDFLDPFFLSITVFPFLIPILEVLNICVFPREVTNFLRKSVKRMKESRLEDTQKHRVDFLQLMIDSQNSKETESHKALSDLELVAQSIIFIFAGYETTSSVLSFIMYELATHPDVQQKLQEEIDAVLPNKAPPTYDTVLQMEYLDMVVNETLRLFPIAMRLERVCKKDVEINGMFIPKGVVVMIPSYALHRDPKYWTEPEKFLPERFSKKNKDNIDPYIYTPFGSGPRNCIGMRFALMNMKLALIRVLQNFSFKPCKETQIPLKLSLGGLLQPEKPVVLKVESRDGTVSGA

[2] = target: Sodium-dependent noradrenaline transporter (Homo sapiens, UniProt P23975); assay: DRUGMATRIX: Norepinephrine Transporter radioligand binding (ligand: [125I] RTI-55); assay type: cell membranes, MDCK, Membrane; conditions: mdck; Not Active = under 50% inhibition at 10 µM
Chain of Sodium-dependent noradrenaline transporter (P23975 whole entry): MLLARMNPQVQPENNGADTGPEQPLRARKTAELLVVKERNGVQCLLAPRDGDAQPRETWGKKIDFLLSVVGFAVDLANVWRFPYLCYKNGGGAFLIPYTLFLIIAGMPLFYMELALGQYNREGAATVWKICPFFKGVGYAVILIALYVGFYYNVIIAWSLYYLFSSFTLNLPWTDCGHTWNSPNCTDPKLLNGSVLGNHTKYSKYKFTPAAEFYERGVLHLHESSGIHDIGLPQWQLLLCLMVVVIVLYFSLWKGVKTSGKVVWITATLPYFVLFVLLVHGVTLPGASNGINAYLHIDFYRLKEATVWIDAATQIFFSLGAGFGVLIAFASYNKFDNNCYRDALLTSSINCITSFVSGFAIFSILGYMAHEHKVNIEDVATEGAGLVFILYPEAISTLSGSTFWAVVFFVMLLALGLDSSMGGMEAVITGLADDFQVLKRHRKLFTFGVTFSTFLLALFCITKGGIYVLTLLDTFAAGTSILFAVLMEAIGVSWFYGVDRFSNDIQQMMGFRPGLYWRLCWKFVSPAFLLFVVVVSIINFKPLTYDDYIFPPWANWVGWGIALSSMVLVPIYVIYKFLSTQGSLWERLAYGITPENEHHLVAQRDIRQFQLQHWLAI

Chain of Cytochrome P450 2C9 (P11712 whole entry): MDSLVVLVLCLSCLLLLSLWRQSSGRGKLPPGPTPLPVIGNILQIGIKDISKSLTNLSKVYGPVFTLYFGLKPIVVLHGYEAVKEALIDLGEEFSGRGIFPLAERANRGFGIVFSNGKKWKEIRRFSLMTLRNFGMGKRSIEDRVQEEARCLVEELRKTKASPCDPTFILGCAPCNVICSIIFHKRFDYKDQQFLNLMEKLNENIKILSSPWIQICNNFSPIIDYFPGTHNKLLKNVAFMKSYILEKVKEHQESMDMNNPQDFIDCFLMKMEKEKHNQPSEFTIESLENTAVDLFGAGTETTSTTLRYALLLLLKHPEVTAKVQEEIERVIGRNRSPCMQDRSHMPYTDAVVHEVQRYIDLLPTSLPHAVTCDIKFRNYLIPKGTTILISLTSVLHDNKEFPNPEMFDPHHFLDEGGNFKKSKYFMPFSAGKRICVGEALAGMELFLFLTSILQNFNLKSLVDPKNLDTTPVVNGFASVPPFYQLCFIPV
Chain of Cytochrome P450 2D6 (P10635 whole entry): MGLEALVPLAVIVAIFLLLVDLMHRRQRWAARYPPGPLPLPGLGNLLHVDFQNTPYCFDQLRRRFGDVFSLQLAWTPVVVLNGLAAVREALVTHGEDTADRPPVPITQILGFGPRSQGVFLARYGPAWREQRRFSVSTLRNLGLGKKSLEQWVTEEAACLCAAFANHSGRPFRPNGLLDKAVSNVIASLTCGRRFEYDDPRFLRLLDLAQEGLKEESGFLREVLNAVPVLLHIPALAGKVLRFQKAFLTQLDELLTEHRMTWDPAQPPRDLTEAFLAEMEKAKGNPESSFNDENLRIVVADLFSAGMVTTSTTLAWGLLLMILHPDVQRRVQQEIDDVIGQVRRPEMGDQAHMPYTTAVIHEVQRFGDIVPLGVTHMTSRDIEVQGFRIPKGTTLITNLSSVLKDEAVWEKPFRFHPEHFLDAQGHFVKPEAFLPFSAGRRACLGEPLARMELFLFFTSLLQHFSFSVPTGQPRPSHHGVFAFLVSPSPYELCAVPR

CO[C@@H]1[C@@H](O[C@@H]2O[C@H](C)[C@@H](O[C@H]3C[C@@](C)(O)[C@@H](OC(=O)CC(C)C)[C@H](C)O3)[C@H](N(C)C)[C@H]2O)[C@@H](CC=O)C[C@@H](C)[C@@H](O)/C=C/C=C/C[C@@H](C)OC(=O)C[C@H]1O [KITASAMYCIN]
Not Active: IC50 (Cytochrome P450 2C9) | Ki (Cytochrome P450 2C9) | IC50 (Cytochrome P450 2D6) | Ki (Cytochrome P450 2D6) | IC50 [1] | Ki [1] | IC50 (Cytochrome P450 1A2) | Ki (Cytochrome P450 1A2) | IC50 (Cytochrome P450 2C19) | Ki (Cytochrome P450 2C19) | IC50 (Glucocorticoid receptor) | IC50 (Estrogen receptor beta) | IC50 (Estrogen receptor) | IC50 (Cytochrome P450 3A4) | Ki (Cytochrome P450 3A4) | IC50 [2]

Cc1ncc([N+](=O)[O-])n1CC(C)O (stereo not drawn) [SECNIDAZOLE]
Not Active: IC50 (Cytochrome P450 2C9) | Ki (Cytochrome P450 2C9) | IC50 (Cytochrome P450 2D6) | Ki (Cytochrome P450 2D6) | IC50 [1] | Ki [1] | IC50 (Cytochrome P450 1A2) | Ki (Cytochrome P450 1A2) | IC50 (Cytochrome P450 2C19) | Ki (Cytochrome P450 2C19) | IC50 (Glucocorticoid receptor) | IC50 (Estrogen receptor beta) | IC50 (Estrogen receptor) | IC50 (Cytochrome P450 3A4) | Ki (Cytochrome P450 3A4) | IC50 [2]

CCC[C@@H]1C[C@@H](C(=O)N[C@@H]([C@H]2O[C@H](SC)[C@H](O)[C@@H](O)[C@H]2O)[C@@H](C)O)N(C)C1 [LINCOMYCIN]
Not Active: IC50 (Cytochrome P450 2C9) | Ki (Cytochrome P450 2C9) | IC50 (Cytochrome P450 2D6) | Ki (Cytochrome P450 2D6) | IC50 [1] | Ki [1] | IC50 (Cytochrome P450 1A2) | Ki (Cytochrome P450 1A2) | IC50 (Cytochrome P450 2C19) | Ki (Cytochrome P450 2C19) | IC50 (Glucocorticoid receptor) | IC50 (Estrogen receptor beta) | IC50 (Estrogen receptor) | IC50 (Cytochrome P450 3A4) | Ki (Cytochrome P450 3A4) | IC50 [2]
